Assay results: patent US20050282818A1, “Ubiquitin ligase inhibitors” (Rigel Pharmaceuticals, Inc., priority 2004, published 2005)

Assays:
Assay type in all cases: cell-based
DLD-1 cells = assay: Cell proliferation PAD assay, DLD-1; conditions: Homo sapiens, DLD1 cells, 6pt, 48 hours
Source text: (§1) Table 3 illustrates the inhibitory activity of the compounds of the invention determined by the PAD assay described above in a number of cell types. Apoptosis was not
Cell lines used are available from American Type Culture Collection (ATCC), for example, cell cultures containing A549 (ATCC# CCL-185), HeLa (ATCC# CCL-2), HCT116 ATTC# CCL-247), and H1299 (ATCC# CRL-5803) cells were maintained in T175 flasks following the ATCC recommended media and handling procedures. […] A 20,000 cells/ml solution was made for plating. Cells were plated in black Packard 96 well plates by placing 100 μl per well (2,000 cells per well). […] The definitions of the cell types used are as follows: A549 is lung carcinoma; HI 299 is non-small cell lung carcinoma; HI 155 is non-small cell lung carcinoma; AsPC-1 is pancreatic adenocarcinoma; Caov-3 is ovarian adenocarcinoma; COLO 205 is colorectal adenocarcinoma; DLD-1 colorectal adenocarcinoma; HCT116 is colorectal carcinoma; DU 145 is prostate carcinoma; ES-2 is ovarian clear cell carcinoma; H460 is large cell lung carcinoma; HELA is cervical adenocarcinoma; MIA PaCa-2 is pancreatice carcinoma; OVCAR-3 is ovarian adenocarcinoma; OVCAR8 is ovarian carcinoma; PC3 is prostate adenocarcinoma; SK-OV-3 is ovarian adenocarcinoma; SU86.86 is pancreatic carcinoma; TOV-21G is avarian clear cell carcinoma; U2OS is bone osteosarcoma; is ASPC-I is pancreatic adenocarcinoma; BXPC-3 is pabcreatic adenocarcinoma; HL60 is promyeloblast promyelocytic leukemia; K562 is bone marrow chronic myelogenous leukemia; L1210 is mouse lymphocytic leukemia; MOLT3 is T lymphoblast acute lymphoblastic leukemia; MOLT4 is T lymphoblast acute lymphoblastic leukemia; SW620 is colorectal adenocarcinoma; THP-1 is monocyte acute monocytic leukemia; U937 is histiocytic lymphoma; and UACC-257 is melanoma.
Compounds and additional media were added 24 hours after cell plating. A compound master plate was created with concentrations 500 times greater than the final concentration added to the cells. All compound testing was done in duplicate using 6.3 fold dilutions starting with 10 mM. All outside wells (and 4 internal wells) were DMSO controls. Taxol and at least one additional control were run on all plates. Three microliters of the compound master plate were added to deep well blocks containing 750 μl of RPMI media. One hundred microliters were transferred from the compound/media deep well blocks to the plated cells resulting in a 500 fold dilution of the compounds. Cells were grown at 37° C., 5% CO2 for 48 hours.
Cells to be analyzed by photography were fixed and stained. One hundred microliters of media were removed and 100 μl of 9.3% formamide was added to each well. Plates were left on the benchtop for 45 minutes. A staining solution containing 1.55 μl of 1 mg/ml DAPI added to 18.75 ml PBS was warmed for 15 minutes at 37° C. The cells were aspirated prior to washing with 100 μl of PBS. Seventy microliters of PBS were aspirated and 170 μl of the DAPI solution were added to each well of fixed cells. Plates were left at room temperature for one hour then aspirated and washed twice with 100 μl of PBS. The stained cells were left at 4° C. for a minimum of 16 hours before photographic analysis with Array Scan II (Cellomics). Analysis of the photographic images to determine numbers of live cells (proliferation), apoptotic cells and dead cells, were according to the methods described in U.S. Utility patent application Ser. No. 10/652,440, which incorporated herein in its entirety.

COLO 205 cells = assay: Cell proliferation PAD assay, COLO 205; conditions: Homo sapiens, Colo205 cells, 9pt, 48 hours
Source text: as §1
(§2) Cell lines used are available from American Type Culture Collection (ATCC), for example, cell cultures containing A549 (ATCC# CCL-185), HeLa (ATCC# CCL-2), HCT116 ATTC# CCL-247), and H1299 (ATCC# CRL-5803) cells were maintained in T175 flasks following the ATCC recommended media and handling procedures. […] A 20,000 cells/ml solution was made for plating. Cells were plated in black Packard 96 well plates by placing 100 μl per well (2,000 cells per well). […]
(§3) Cells to be analyzed by photography were fixed and stained. […]

MIA PaCa-2 cells = assay: Cell proliferation PAD assay, MIA PaCa-2; conditions: Homo sapiens, Miapaca2 cells, 9pt, 48 hours
Source text: as §1, §2, §3

IC50 (DLD-1 cells)	IC50 (COLO 205 cells)	IC50 (MIA PaCa-2 cells)	SMILES
1000 to 20000 nM			O=S(=O)(Nc1ccc2cn[nH]c2c1)c1ccc(Cl)c2nonc12 [compound 220, 7-chloro-N-1 H-indazol-6-yl-2,1,3-benzoxadiazole-4-sulfonamide]
< 1000 nM			O=[N+]([O-])c1ccc(SCCO)c2nonc12 [compound 150, 2-[(7-nitro-2,1,3-benzoxadiazol-4-yl)thio]ethanol]
< 1000 nM			COC(=O)c1ccc(NS(=O)(=O)c2c(Cl)ccc3nonc23)cc1 [compound 178, methyl 4-{[(5-chloro-2,1,3-benzoxadiazol-4-yl)sulfonyl]amino}benzoate]
< 1000 nM			Cc1cccc(N2CCN(S(=O)(=O)c3c(Cl)ccc4nonc34)CC2)n1 [compound 202, 5-chloro-4-{[4-(6-methylpyridin-2-yl)piperazin-1-yl]sulfonyl}-2,1,3-benzoxadiazole]
1000 to 20000 nM			O=S(=O)(c1c(Cl)ccc2nonc12)N1CCN(c2ncc(C(F)(F)F)cc2Cl)CC1 [compound 179, 5-chloro-4-({4-[3-chloro-5-(trifluoromethyl)pyridin-2-yl]piperazin-1-yl}sulfonyl)-2,1,3-benzoxadiazole]
1000 to 20000 nM			Cc1cc(C)cc(-c2ccc([N+](=O)[O-])c3nonc23)c1 [compound 286, 4-(3,5-Dimethylphenyl)-7-nitro-2,1,3-benzoxadiazole]
	< 1000 nM	< 1000 nM	CC1(C)CCN(S(=O)(=O)c2c(Cl)ccc3nonc23)CC1 [compound 245, 5-chloro-4-[(4,4-dimethylpiperidin-1-yl)sulfonyl]-2,1,3-benzoxadiazole]
